From PubChem BioAssay AID256 (DTP/NCI, 2004)
Inconclusive results and toxic doses are left out.

Tested on: CD2F1 mice, L1210 leukemia ip, survival T/C
Assay: NCI In Vivo Anticancer Drug Screen. Data for tumor model L1210 Leukemia (intraperitoneal) in CD2F1 (CDF1) mice
Conditions: endpoint: mean survival time, higher = longer survival
Method in brief: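 Activity against a transplanted murine tumor was judged by comparing the compound group with a vehicle group. The outcome in the treated animals was divided by that in the controls.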

For `Cn1c(C(O)c2cccnc2)c(CN2CCCCC2)c2ccccc21` (stereo not given), the T/C (dose: 100.0 mg/kg/injection, schedule: Q01DX001 (ip), vehicle: saline with Tween-80) was 97 % of control and the T/C (dose: 200.0 mg/kg/injection, schedule: Q01DX001 (ip), vehicle: saline with Tween-80) was 94 % of control.

For `C#CCOc1c(C(=O)OCC)cnc2c1c(C)nn2CC`, the T/C (dose: 100.0 mg/kg/injection, schedule: Q04DX003 (ip), vehicle: Klucel (hydroxypropylcellulose) (HPC)) was 101 % of control, the T/C (dose: 200.0 mg/kg/injection, schedule: Q04DX003 (ip), vehicle: Klucel (hydroxypropylcellulose) (HPC)) was 97 % of control and the T/C (dose: 400.0 mg/kg/injection, schedule: Q04DX003 (ip), vehicle: Klucel (hydroxypropylcellulose) (HPC)) was 101 % of control.

With `COc1cc2c(cc1OC)C(OC)N(C)c1c-2ccc2cc3c(cc12)OCO3` (stereo not given) the T/C (dose: 3.13 mg/kg/injection, schedule: Q01DX009 (ip), vehicle: water) was 117 % of control, the T/C (dose: 6.25 mg/kg/injection, schedule: Q01DX009 (ip), vehicle: water) was 121 % of control and the T/C (dose: 12.5 mg/kg/injection, schedule: Q01DX009 (ip), vehicle: water) was 123 % of control. The T/C (dose: 25.0 mg/kg/injection, schedule: Q01DX009 (ip), vehicle: water) was 121 % of control.

With `O=c1[nH]c(=S)[nH]c(-c2ccccc2)c1CCO` the T/C (dose: 100.0 mg/kg/injection, schedule: Q04DX003 (ip), vehicle: saline with Tween-80) was 97 % of control, the T/C (dose: 200.0 mg/kg/injection, schedule: Q04DX003 (ip), vehicle: saline with Tween-80) was 101 % of control and the T/C (dose: 400.0 mg/kg/injection, schedule: Q04DX003 (ip), vehicle: saline with Tween-80) was 91 % of control.

In the case of `CCN(CC)CCCC(C)Nc1nnc2c(=O)n(C)c(=O)n(C)c2n1` (stereo not given), the T/C (dose: 75.0 mg/kg/injection, schedule: Q01DX001 (ip), vehicle: saline) is reported as 95 % of control, the T/C (dose: 150.0 mg/kg/injection, schedule: Q01DX001 (ip), vehicle: saline) is reported as 93 % of control and the T/C (dose: 300.0 mg/kg/injection, schedule: Q01DX001 (ip), vehicle: saline) is reported as 87 % of control.

For `COc1ccc(NC(=O)Nc2cc(Cl)c(OC)cc2OC)cc1`, the T/C (dose: 100.0 mg/kg/injection, schedule: Q04DX002 (ip), vehicle: saline with Tween-80) was 93 % of control and the T/C (dose: 200.0 mg/kg/injection, schedule: Q04DX002 (ip), vehicle: saline with Tween-80) was 86 % of control.

With `COC1OC(CO)C(NC(N)=O)C1O` (stereo not given) the T/C (dose: 100.0 mg/kg/injection, schedule: Q01DX001 (ip), vehicle: saline) was 101 % of control, the T/C (dose: 200.0 mg/kg/injection, schedule: Q01DX001 (ip), vehicle: saline) was 100 % of control and the T/C (dose: 400.0 mg/kg/injection, schedule: Q01DX001 (ip), vehicle: saline) was 95 % of control.
